Literature values as cited in PMC4303313 (Biochemistry, 2014).

How the values were obtained:
reduced RfBP = biological target: T1, reduced RfBP (Gallus gallus, UniProt P02752); conditions: no GSH
T1 sequence (P02752 18-238): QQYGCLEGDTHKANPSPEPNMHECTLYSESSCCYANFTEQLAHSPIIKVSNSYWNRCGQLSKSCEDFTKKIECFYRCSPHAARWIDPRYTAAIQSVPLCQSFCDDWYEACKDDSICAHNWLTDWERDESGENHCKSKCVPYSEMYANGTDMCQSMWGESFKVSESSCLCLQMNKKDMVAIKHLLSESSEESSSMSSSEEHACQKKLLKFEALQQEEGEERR

reduced RNase = biological target: T2, reduced RNase (Bos taurus, UniProt P61823)
T2 sequence (P61823 27-150): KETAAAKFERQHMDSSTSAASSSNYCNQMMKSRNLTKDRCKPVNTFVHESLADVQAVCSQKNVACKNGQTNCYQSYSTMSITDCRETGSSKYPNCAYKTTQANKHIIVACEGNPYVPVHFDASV

In the case of C[As](O)O [MMA], the “effect on ability of reoxidized RfBP to rebind riboflavin” value (reduced RfBP) is listed as “profoundly attenuated”, the “formation of filamentous deposits from reduced RNase” value (reduced RNase; no GSH) is listed as “led to the formation of filamentous deposits” and the “formation of aggregates from reduced RNase” value (reduced RNase; reduced RNase and GSH) is listed as “do not appear”.
